Results published in patent publication US7358359B2, “Antibacterial agents” (University of Washington, priority 2003, dated 2008).
Read-outs that look alike come from different tables or passages of the source.

What was measured:
[1] = test system: non-CF clinical isolates of P. aeruginosa; experiment: MIC vs non-CF clinical isolates of P. aeruginosa; format: cell-based; details: Pseudomonas aeruginosa, MIC key class
Procedure: (§1) Bacterial isolates were cultivated from −70° C. frozen stocks by two consecutive overnight passages at 35° C. in ambient air on 5% blood agar (Remel, Lenexa, Kans.). Clinical isolates tested were from a collection composed of isolates collected during clinical trials and recent clinical isolates obtained from various geographically diverse hospitals in the US. Quality control and primary panel strains were from the American Type Culture Collection (ATCC; Rockville, Md.), with the exception of P. aeruginosa PAO200, a strain with a deletion of the mexABoprM genes that was received from Dr. H. Schweizer. […] Strain Z61 (ATCC 35151) is also hypersusceptible to antibacterials. It is thought that the hypersusceptibility of this strain is the result of increased permeability of its outer membrane (Angus B L et al, Antimicrobial Agents and Chemotherapy 1982 21,299-309: Outer membrane permeability in Pseudomonas aeruginosa: Comparison of a wild-type with an antibacterial-supersusceptible mutant).
(§2) Minimum Inhibitory Concentrations (MICs) were determined by the broth microdilution method in accordance with the National Committee for Clinical Laboratory Standards (NCCLS) guidelines. In brief, organism suspensions were are adjusted to a 0.5 McFarland standard to yield a final inoculum between 3×10^5 and 7×10^5 colony-forming units (CFU)/mL. Drug dilutions and inocula were made in sterile, cation adjusted Mueller-Hinton Broth (Remel). An inoculum volume of 100 μl was added to wells containing 100 μl of broth with 2-fold serial dilutions of drug. All inoculated microdilution trays were incubated in ambient air at 35° C. for 18-24 hours. Following incubation, the lowest concentration of the drug that prevented visible growth was recorded as the MIC. Performance of the assay was monitored by the use of laboratory quality-control strains against tobramycin, that has a defined MIC spectrum, in accordance with NCCLS guidelines.

[2] = test system: Pseudomonas aeruginosa cystic fibrosis isolate 3236; experiment: MIC vs cystic fibrosis isolate of P. aeruginosa 3236 (sensitive to most antibacterials); format: cell-based; details: strain 3236, Sensitive, LpxC inhibitors, MIC key class
Procedure: (§3) Bacterial isolates were cultivated from −70° C. frozen stocks by two consecutive overnight passages at 35° C. in ambient air on 5% blood agar (Remel, Lenexa, Kans.). Clinical isolates tested were from a collection composed of isolates collected during clinical trials and recent clinical isolates obtained from various geographically diverse hospitals in the US. Quality control and primary panel strains were from the American Type Culture Collection (ATCC; Rockville, Md.), with the exception of P. aeruginosa PAO200, a strain with a deletion of the mexABoprM genes that was received from Dr. H. Schweizer.
as §2, with “MIC.” for “MIC. Performance of the assay was monitored by the use of laboratory quality-control strains against tobramycin, that has a defined MIC spectrum, in accordance with NCCLS guidelines.”

Enterobacter aerogenes = experiment: MIC vs enteric organisms: Enterobacter aerogenes; format: cell-based; details: Klebsiella aerogenes; E. aer.; MIC key class
Procedure: as §3
as §2, with “MIC.” for “MIC. Performance of the assay was monitored by the use of laboratory quality-control strains against tobramycin, that has a defined MIC spectrum, in accordance with NCCLS guidelines.”

Burkholderia cepacia = experiment: MIC vs non-fermenting organisms: Burkholderia cepacia; format: cell-based; details: Burkholderia cepacia, B. cepacia; MIC key class; read-out: MIC
Procedure: as §3
as §2, with “MIC.” for “MIC. Performance of the assay was monitored by the use of laboratory quality-control strains against tobramycin, that has a defined MIC spectrum, in accordance with NCCLS guidelines.”

P. aeruginosa LpxC = target: T1, P. aeruginosa LpxC (Pseudomonas aeruginosa, UniProt P47205); experiment: P. aeruginosa LpxC Inhibition Assay; format: biochemical
T1 sequence (P47205 1-303): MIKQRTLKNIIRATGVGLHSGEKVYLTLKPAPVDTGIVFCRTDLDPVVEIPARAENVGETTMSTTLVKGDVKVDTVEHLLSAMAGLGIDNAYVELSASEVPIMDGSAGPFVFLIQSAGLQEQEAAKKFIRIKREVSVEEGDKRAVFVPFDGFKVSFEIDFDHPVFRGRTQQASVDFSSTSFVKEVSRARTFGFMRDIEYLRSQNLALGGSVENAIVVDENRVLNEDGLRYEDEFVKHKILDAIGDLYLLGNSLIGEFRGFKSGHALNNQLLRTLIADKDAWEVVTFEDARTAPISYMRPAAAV
Procedure: The assay followed the general method of Hyland et al (Journal of Bacteriology 1997 179, 2029-2037: Cloning, expression and purification of UDP-3-O-acyl-GlcNAc deacetylase from Pseudomonas aeruginosa: a metalloamidase of the lipid A biosynthesis pathway) and the radiolabeling procedure is according to Kline et al. supra. Briefly, samples were incubated with 2 nM P. aeruginosa LpxC and 150 nM [3H-Ac]-UDP-3-OR-3-hydroxydecanoyl)-GlcNAc in a total volume of 50 uL for 90 min at room temperature. Reactions were carried out in 96-well polypropylene plates in 50 mM sodium phosphate buffer, pH 7.5, containing 1 mg/mL BSA. Reactions were stopped by the addition of 180 uL of a 3% suspension of activated charcoal powder in 100 mM sodium acetate, pH 7.5. Supernatants were clarified by centrifugation. A portion of the clarified supernatant, containing the enzymatically released [3H]-acetate, was transferred to opaque white 96-well plates containing scintillation fluid. The radioactivity was measured in a Perkin-Elmer/Wallac Trilux Microbeta counter.

Klebsiella oxytoca = experiment: MIC vs enteric organisms: Klebsiella oxytoca; format: cell-based; details: K. oxy., MIC key class
Procedure: as §3
as §2, with “MIC.” for “MIC. Performance of the assay was monitored by the use of laboratory quality-control strains against tobramycin, that has a defined MIC spectrum, in accordance with NCCLS guidelines.”

E. coli 25922 = experiment: MIC broth microdilution, standard panel: E. coli 25922; format: cell-based; details: Escherichia coli, standard panel of organisms
Procedure: as §1, §2

Proteus mirabilis = experiment: MIC vs enteric organisms: Proteus mirabilis; format: cell-based; details: P. mir., MIC key class
Procedure: as §3
as §2, with “MIC.” for “MIC. Performance of the assay was monitored by the use of laboratory quality-control strains against tobramycin, that has a defined MIC spectrum, in accordance with NCCLS guidelines.”

[3] = test system: P. aeruginosa PAO200 mexAB; experiment: MIC broth microdilution, standard panel: P. aeruginosa PAO200 mexAB; format: cell-based; details: Pseudomonas aeruginosa, PAO200MEXAB, read-out: MIC P. aeruginosa PAO200 mexAB
Procedure: as §1, §2

[4] = test system: Pseudomonas aeruginosa cystic fibrosis isolate 2196; experiment: MIC vs cystic fibrosis isolate of P. aeruginosa 2196 (resistant to ciprofloxacin); format: cell-based; details: strain 2196, Cipro R, LpxC inhibitors, MIC key class
Procedure: as §3
as §2, with “MIC.” for “MIC. Performance of the assay was monitored by the use of laboratory quality-control strains against tobramycin, that has a defined MIC spectrum, in accordance with NCCLS guidelines.”

Klebsiella pneumoniae = experiment: MIC vs enteric organisms: Klebsiella pneumoniae; format: cell-based; details: K. pneu., MIC key class
Procedure: as §3
as §2, with “MIC.” for “MIC. Performance of the assay was monitored by the use of laboratory quality-control strains against tobramycin, that has a defined MIC spectrum, in accordance with NCCLS guidelines.”

P. aeruginosa 27853 = experiment: MIC broth microdilution, standard panel: P. aeruginosa 27853; format: cell-based; details: Pseudomonas aeruginosa, standard panel of organisms
Procedure: as §1, §2

[5] = test system: Acinetobacter calcoaceticus; experiment: MIC vs non-fermenting organisms: Acinetobacter calcoaceticus; format: cell-based; details: Acinet. calc., MIC key class
Procedure: as §3
as §2, with “MIC.” for “MIC. Performance of the assay was monitored by the use of laboratory quality-control strains against tobramycin, that has a defined MIC spectrum, in accordance with NCCLS guidelines.”

Escherichia coli = experiment: MIC vs enteric organisms: Escherichia coli clinical isolates; format: cell-based; details: Escherichia coli, MIC key class, read-out: MIC
Procedure: as §3
as §2, with “MIC.” for “MIC. Performance of the assay was monitored by the use of laboratory quality-control strains against tobramycin, that has a defined MIC spectrum, in accordance with NCCLS guidelines.”

[6] = 2 nM P. aeruginosa LpxC, 90 min, room temperature, read-out: IC50 (nM), Enzyme inhibitory activity

C[C@@H](O)[C@H](NC(=O)c1ccc(C#Cc2ccccc2)cc1)C(=O)NO [Example 12, N-(1-(N-hydroxycarbamoyl)(1S,2R)-2-hydroxypropyl)[4-(2-phenylethynyl)phenyl]carboxamide]
< 6.25 µg/mL: MIC ([1]; P. aer 12307) | MIC ([1]; P. aer 27853) | MIC ([1]; P. aer psa-6b) | MIC ([1]; PAO1, P. aer. PAO1) | MIC [2] | MIC (Klebsiella oxytoca) | MIC (E. coli 25922) | MIC (Proteus mirabilis) | MIC [3] | MIC (Klebsiella pneumoniae) | MIC (P. aeruginosa 27853) | MIC [5] | MIC (Escherichia coli; E. coli 1619) | MIC (Escherichia coli; E. coli 2788)
> 50 µg/mL: MIC (Enterobacter aerogenes)
< 100 nM: IC50 (P. aeruginosa LpxC)
6.25 to 50 µg/mL: MIC (Burkholderia cepacia) | MIC [4]

C[C@@H](N)[C@H](NC(=O)c1ccc(C#Cc2ccccc2)cc1)C(=O)NO [Example 13]
< 6.25 µg/mL: MIC ([1]; P. aer 27853) | MIC ([1]; P. aer psa-6b) | MIC ([1]; PAO1, P. aer. PAO1) | MIC [2] | MIC (Burkholderia cepacia) | MIC (Klebsiella oxytoca) | MIC (E. coli 25922) | MIC (Proteus mirabilis) | MIC [3] | MIC [4] | MIC (Klebsiella pneumoniae) | MIC (P. aeruginosa 27853) | MIC (Escherichia coli; E. coli 1619) | MIC (Escherichia coli; E. coli 2788)
< 100 nM: IC50 (P. aeruginosa LpxC)
> 50 µg/mL: MIC (Enterobacter aerogenes) | MIC [5]

CCc1ccc(-c2ccc(C(=O)N[C@H](C(=O)NO)[C@@H](C)N)cc2)cc1 [Example 779, N-{(1S,2R)-2-amino-1-[(hydroxyamino)carbonyl]propyl)-4′-ethyl-1,1′-biphenyl-4-carboxamide]
> 50 µg/mL: MIC (Enterobacter aerogenes) | MIC [5]
6.25 to 50 µg/mL: MIC (Klebsiella oxytoca) | MIC (Proteus mirabilis) | MIC (Klebsiella pneumoniae)
< 6.25 µg/mL: MIC ([1]; P. aer 27853) | MIC ([1]; P. aer psa-6b) | MIC ([1]; PAO1, P. aer. PAO1) | MIC [2] | MIC (Burkholderia cepacia) | MIC (E. coli 25922) | MIC [3] | MIC [4] | MIC (P. aeruginosa 27853) | MIC (Escherichia coli; E. coli 1619) | MIC (Escherichia coli; E. coli 2788)
< 100 nM: IC50 (P. aeruginosa LpxC)

NC[C@H](NC(=O)c1ccc(C#Cc2ccc(NC(=O)CNC3CC3)cc2)cc1)C(=O)NO [Example 516, N-[(1S)-1-(aminomethyl)-2-(hydroxyamino)-2-oxoethyl]-4-[(4-{[(cyclopropylamino)acetyl]amino}phenyl)ethynyl]benzamide]
< 6.25 µg/mL: MIC ([1]; P. aer 12307) | MIC ([1]; P. aer 27853) | MIC ([1]; P. aer psa-6b) | MIC [2] | MIC (E. coli 25922) | MIC [3] | MIC [4] | MIC (P. aeruginosa 27853) | MIC (Escherichia coli; E. coli 1619)
< 100 nM: IC50 (P. aeruginosa LpxC; [6])
6.25 to 50 µg/mL: MIC (Escherichia coli; E. coli 2788)
> 50 µg/mL: MIC (Enterobacter aerogenes) | MIC (Burkholderia cepacia) | MIC (Klebsiella oxytoca) | MIC (Proteus mirabilis) | MIC (Klebsiella pneumoniae) | MIC [5]

C[C@@H](O)[C@H](NC(=O)c1ccc(C#CC#Cc2ccccc2)cc1)C(=O)NO [Example 19, N-(1-(N-hydroxycarbamoyl)(1S,2R)-2-hydroxypropyl)[4-(4-phenylbuta-1,3-diynyl)phenyl]carboxamide]
< 100 nM: IC50 (P. aeruginosa LpxC)
6.25 to 50 µg/mL: MIC (Burkholderia cepacia)
< 6.25 µg/mL: MIC ([1]; P. aer 12307) | MIC ([1]; P. aer 27853) | MIC ([1]; P. aer psa-6b) | MIC ([1]; PAO1, P. aer. PAO1) | MIC [2] | MIC (Enterobacter aerogenes) | MIC (Klebsiella oxytoca) | MIC (E. coli 25922) | MIC (Proteus mirabilis) | MIC [3] | MIC [4] | MIC (Klebsiella pneumoniae) | MIC (P. aeruginosa 27853) | MIC [5] | MIC (Escherichia coli; E. coli 1619) | MIC (Escherichia coli; E. coli 2788)

NC[C@H](NC(=O)c1ccc(C#CC#Cc2ccccc2)cc1)C(=O)NO [Example 481, N-[(1S)-1-(aminomethyl)-2-(hydroxyamino)-2-oxoethyl]-4-(4-phenylbuta-1,3-diynyl)benzamide]
6.25 to 50 µg/mL: MIC (Burkholderia cepacia)
> 50 µg/mL: MIC (Enterobacter aerogenes) | MIC [5]
< 100 nM: IC50 (P. aeruginosa LpxC; [6])
< 6.25 µg/mL: MIC ([1]; P. aer 12307) | MIC ([1]; P. aer 27853) | MIC ([1]; P. aer psa-6b) | MIC ([1]; PAO1, P. aer. PAO1) | MIC [2] | MIC (Klebsiella oxytoca) | MIC (E. coli 25922) | MIC (Proteus mirabilis) | MIC [3] | MIC [4] | MIC (Klebsiella pneumoniae) | MIC (P. aeruginosa 27853) | MIC (Escherichia coli; E. coli 1619) | MIC (Escherichia coli; E. coli 2788)
